biological target: PDE V isoenzyme (Homo sapiens, UniProt O76074); assay: PDE V isoenzyme inhibition (PDE V IC50); type: biochemical; settings: bound printed as 'about <'
Description: The compounds of the invention can be useful for inhibiting PDE V isoenzymes. Isoenzyme activity (potency) and isoenzyme selectivity for a compound can be evaluated in a number of ways. […] Similarly, an IC50 value may be obtained for other PDE isoenzymes, such as the PDE VI isoenzyme. Isoenzyme selectivity in this respect may be defined as the activity (potency) of a PDE inhibitor compound for a particular PDE isoenzyme as opposed to another PDE isoenzyme, for example, the activity of a compound to inhibit a PDE V isoenzyme compared to the activity of the same compound to inhibit a PDE VI isoenzyme.

| Compound | IC50 |
| --- | --- |
| CCN1C(=O)c2c(nc(OC)n2Cc2ccc(O)c(Br)c2)N2C1=N[C@@H]1CCC[C@@H]12 [Compound 5] | < 1.6 nM |
| CCN1C(=O)c2c(nc(OC)n2Cc2ccc(O)c(Cl)c2)N2C1=N[C@@H]1CCC[C@@H]12 [Compound 6] | < 4.1 nM |
| CCN1C(=O)c2c(nc(OC)n2Cc2ccc(OC)c(Cl)c2)N2C[C@@H](Cc3ccccc3)N=C12 [Compound 2] | < 1.6 nM |
| CCN1C(=O)c2c(nc(C(=O)NC)n2Cc2ccc(O)c(Cl)c2)N2C[C@@H](Cc3ccccc3)N=C12 [Compound 9] | < 4.1 nM |
| CCN1C(=O)c2c(nc(OC)n2Cc2ccc(O)cc2)N2C[C@@H](Cc3ccccc3)N=C12 [Compound 8] | < 2.5 nM |
| CCN1C(=O)c2c(nc(OC)n2Cc2ccc(OC)c(Br)c2)N2C[C@@H](Cc3ccccc3)N=C12 [Compound 3] | < 4.1 nM |
| CCOc1nc2c(n1Cc1ccc(OC)c(Cl)c1)C(=O)N(CC)C1=N[C@H](Cc3ccccc3)CN12 [Compound 1] | < 2.2 nM |
| CCN1C(=O)c2c(nc(Br)n2Cc2ccc(OC)c(Br)c2)N2C[C@@H](Cc3ccccc3)N=C12 [Compound 1.3.2] | < 4.1 nM |
| CCN1C(=O)c2c(nc(Br)n2Cc2ccc(O)c(Br)c2)N2C1=N[C@@H]1CCC[C@@H]12 [Compound 4] | < 1.6 nM |

Next, values leading:

| IC50 | Compound |
| --- | --- |
| < 1.6 nM | CCN1C(=O)c2c(nc(OC)n2Cc2ccc(O)c(Br)c2)N2C[C@@H](Cc3ccccc3)N=C12 [Compound 18] |
| < 4.1 nM | CCOc1nc2c(n1Cc1ccc(O)c(Br)c1)C(=O)N(CC)C1=N[C@H](Cc3ccccc3F)CN12 [Compound 22] |
| < 4.1 nM | CCN1C(=O)c2c(nc(Br)n2Cc2ccc(O)c(Br)c2)N2C[C@@H](Cc3ccccc3)N=C12 [Compound 13] |
| < 4.1 nM | CCOc1nc2c(n1Cc1ccc(O)c(Cl)c1)C(=O)N(CC)C1=N[C@H](C(C)C)CN12 [Compound 19] |
| < 4.1 nM | CCN1C(=O)c2c(nc(Br)n2Cc2ccc(O)c(Br)c2)N2C[C@@H](Cc3cccc(F)c3)N=C12 [Compound 23] |
| < 1.6 nM | CCN1C(=O)c2c(nc(OC)n2Cc2ccc(O)c(Cl)c2)N2C[C@@H](Cc3ccccc3)N=C12 [Compound 17] |
| < 4.1 nM | CCN1C(=O)c2c(nc(C(N)=O)n2Cc2ccc(O)c(Cl)c2)N2C[C@@H](Cc3ccccc3)N=C12 [Compound 10] |
| < 4.1 nM | CCN1C(=O)c2c(nc(Br)n2Cc2ccc(O)c(Cl)c2)N2C[C@@H](Cc3ccccc3)N=C12 [Compound 12] |
| < 1.6 nM | CCN1C(=O)c2c(nc(C(=O)OC)n2Cc2ccc(O)c(Cl)c2)N2C[C@@H](Cc3ccccc3)N=C12 [Compound 11] |
| < 4.1 nM | CCN1C(=O)c2c(nc(Cl)n2Cc2ccc(O)cc2)N2C[C@@H](Cc3ccccc3)N=C12 [Compound 15] |
| < 2.2 nM | CCN1C(=O)c2c(nc(Br)n2Cc2ccc(O)c(Cl)c2)N2C[C@@H](Cc3ccc(F)cc3)N=C12 [Compound 21] |
| < 1.6 nM | CCOc1nc2c(n1Cc1ccc(O)c(Cl)c1)C(=O)N(CC)C1=N[C@H](Cc3ccccc3)CN12 [Compound 16] |

Reference: patent US6943171B2, “Polycyclic guanine derivative phosphodiesterase V inhibitors” (Schering Corporation, priority 2001, dated 2005)
